Entries after “also recorded” stand apart in the source; their conditions may differ.

For assay [1], the target named is T1, human erythrocyte calpain 1 (Homo sapiens, UniProt P07384).
T1 construct: human erythrocyte calpain 1 (MilliporeSigma); purchased MilliporeSigma; host or cells: human erythrocytes
T1 sequence (P07384 1-714): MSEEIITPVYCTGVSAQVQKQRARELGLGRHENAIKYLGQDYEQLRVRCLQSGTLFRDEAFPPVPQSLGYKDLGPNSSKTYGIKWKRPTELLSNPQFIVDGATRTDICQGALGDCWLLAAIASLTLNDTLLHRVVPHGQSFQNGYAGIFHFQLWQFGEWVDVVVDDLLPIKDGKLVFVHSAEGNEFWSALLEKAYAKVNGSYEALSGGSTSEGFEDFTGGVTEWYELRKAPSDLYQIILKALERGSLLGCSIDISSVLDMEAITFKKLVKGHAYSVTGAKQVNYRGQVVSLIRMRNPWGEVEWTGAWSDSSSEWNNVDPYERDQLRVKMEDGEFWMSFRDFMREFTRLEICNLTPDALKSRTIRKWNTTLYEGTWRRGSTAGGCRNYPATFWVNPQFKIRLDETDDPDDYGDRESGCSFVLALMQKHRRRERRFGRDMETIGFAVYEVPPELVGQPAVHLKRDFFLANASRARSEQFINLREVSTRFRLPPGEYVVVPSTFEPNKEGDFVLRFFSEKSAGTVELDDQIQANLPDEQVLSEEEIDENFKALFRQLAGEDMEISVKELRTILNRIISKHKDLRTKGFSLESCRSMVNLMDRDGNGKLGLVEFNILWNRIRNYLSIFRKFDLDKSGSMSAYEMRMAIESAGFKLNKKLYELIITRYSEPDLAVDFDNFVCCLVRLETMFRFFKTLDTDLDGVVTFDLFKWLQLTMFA
T1 sequence (P04632 1-268 partner): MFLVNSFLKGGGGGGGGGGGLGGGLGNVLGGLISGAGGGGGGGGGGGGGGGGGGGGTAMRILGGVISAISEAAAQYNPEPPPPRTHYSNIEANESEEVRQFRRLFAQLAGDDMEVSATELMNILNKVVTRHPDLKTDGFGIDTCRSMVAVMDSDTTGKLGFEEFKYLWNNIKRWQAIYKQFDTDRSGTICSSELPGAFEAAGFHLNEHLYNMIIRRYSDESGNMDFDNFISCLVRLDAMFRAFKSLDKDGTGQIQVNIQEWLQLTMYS
As to the kind of experiment: Calpain-Glo Protease Assay. The following applies: 5 mM CaCl2, 10 min, room temperature; mean of two experiments. Format: biochemical. The procedure:
For measurement of inhibitory activities against calpains in vitro, Calpain-Glo Protease Assay (Promega; Madison, WI, USA) was performed using human erythrocyte calpain 1 (MilliporeSigma) and purified porcine calpain 2. Briefly, 24 µL of each calpain diluted with 20 mM Tris-HCl (pH 7.4), 1 µL of each inhibitor, and 25 µL of reaction buffer including CaCl2 in a 96-well plate was incubated for 10 min at room temperature. The final concentration of CaCl2 in the reaction solution was 5 mM. The luminescence was measured using a microplate reader (GloMax Discover System; Promega). IC50 values from two independent experiments were averaged.

In assay [2] the test system is calpain 1 activation and proteolysis of α-spectrin. Nature of the assay: Immunoblotting of retinal explants under hypoxia/reoxygenation. The following applies: H16R8. Format: cell-based, rhesus macaques (Macaca mulatta). Here is the method: Retina explant culture was performed as described in our previous report, except for the induction of hypoxia. Briefly, a hypoxic chamber (Coy Laboratory Products, Grass Lake, MI, USA) was controlled at 0.3% oxygen with a 95% N2/5% CO2 gas mixture. Retinas were dissected into fan-shaped explants with 6 or 7 petals (> 5 mm) in HBSS. Each explant was placed with the RGC side facing up on a Millicell organotypic standing insert (0.4 μm, 30 mm diameter, MilliporeSigma) in six-well, culture plates. They were cultured for 2 hr at 37°C under 95% N2/5% CO2 in Neurobasal-A medium supplemented with B27, N2 supplements, 2 mM L-glutamine (Thermo Fisher Scientific, Waltham, MA, USA), and 100 μg/mL primocin (Invivogen, San Diego, CA, USA). Retinal explants were then chamber-cultured under hypoxic conditions for 16 hr in a culture medium with 0.5 mM glucose, under 0.3% oxygen. The retinas were then re-oxygenated for 8 hr in a culture medium with 5.5 mM glucose. Normoxic control retinas were cultured for 24 hr in a culture medium with 5.5 mM glucose. When present, calpain inhibitors (SNJ-1945, PD-151746, C2I, and ABT-957) and cathepsin inhibitors (Odanacatib and SID26681509) in 0.1% DMSO were used at the final concentration of 10 or 100 μM in the medium. BAPTA (Thermo Fisher Scientific) and BAPTA-AM (Thermo Fisher Scientific) were also used at a final concentration of 3 or 10 mM or a final concentration of 100 or 500 μM, respectively.
All inhibitors and BAPTA were treated simultaneously with hypoxia induction, and BAPTA-AM treatment was 2 hr before hypoxia induction.
Each retinal explant was sonicated in RIPA Lysis and Extraction Buffer (Thermo Fisher Scientific), with protease inhibitors cocktail (Complete Mini-EDTA-free; MilliporeSigma). Protein concentrations in lysates were measured by BCA assay (Pierce BCA Protein Assay Kit, Thermo Fisher Scientific) using bovine serum albumin as a standard. For immunoblotting, 5 μg of each sample was loaded and run on 4% to 12% gradient or 10% SDS-PAGE gels (NuPAGE Bis-Tris Protein Gels, Thermo Fisher Scientific) with 2-(N-morpholino)ethanesulfonic acid buffer or 3-(N-morpholino) propanesulfonic acid buffer (Thermo Fisher Scientific). Proteins were then electrotransferred to a polyvinylidene fluoride membrane (MilliporeSigma) at 100 V for 60 min or 1.5 hr. Membranes were then blocked with 5% skim milk in Tris-buffer saline (Bio-Rad Laboratories, Hercules, CA, USA) containing 0.05% Tween 20. Each membrane was probed with primary antibodies against α-spectrin (1:2000 dilution, Enzo Life Sciences, Farmingdale, NY, USA), SBDP150 (1:1000 dilution, Senju Pharmaceutical), calpain 1 (1:1000 dilution, Thermo Fisher Scientific), calpain 2 (1:500, GeneTex, Irvine, CA, USA), cathepsin K (1:500 dilution, Abcam), and β-actin (1:1000 dilution, Merck). For calpain 1, immunoreactivity was visualized using a secondary antibody conjugated to alkaline phosphatase and the AP Conjugate Substrate Kit (Bio-Rad Laboratories). For other proteins, immunoreactivities were visualized using secondary antibodies conjugated with rabbit (Santa Cruz Biotechnology) or mouse horseradish peroxidase enzyme (Cytiva, Wilmington, DE, USA) and ECL Plus detection reagents (Cytiva). Images of the membranes were captured with FluorChem FC2 imager (Cell Biosciences, Santa Clara, CA, USA). The conversion of pro-cathepsin K (38 kDa) to its mature form (27 kDa) was used as an indicator of cathepsin K activation.
(In western blotting, separated proteins are transferred to a membrane and probed.)

The mark [3] stands for this setting: cathepsin inhibitor at 10 or 100 µM.

One may read the IC50 as the midpoint of a concentration-inhibition curve. As to `CC(C)(F)C[C@H](N[C@@H](c1ccc(-c2ccc(S(C)(=O)=O)cc2)cc1)C(F)(F)F)C(=O)NC1(C#N)CC1` [Odanacatib], it took 15.9 µM to reach half-maximal inhibition in assay [1] (IC50). Also, the “Effect on activation of calpain 1 and proteolysis of α-spectrin (immunoblot)” value (“Effect on activation” for short) in assay [2] (setting [3]) is listed as “did not mitigate”.

`CCc1ccccc1NC(=O)CSC(=O)NNC(=O)[C@H](Cc1c[nH]c2ccccc12)NC(=O)OC(C)(C)C` [SID26681509] displayed an IC50 in assay [1] of 81 µM. For the same compound, the “Effect on activation” value in assay [2] (setting [3]) is “did not mitigate”.

Consider `COCCOCCOC(=O)N[C@@H](CC(C)C)C(=O)N[C@@H](Cc1ccccc1)C(=O)C(=O)NC1CC1` [SNJ-1945], for which, in assay [1], half-maximal inhibition (IC50) required 0.077 µM. Moreover, the “Effect on activation” value in assay [2] (calpain inhibitors (SNJ-1945 100 µM)) is recorded as “effectively ameliorated; also recorded: inhibited the autolytic activation of calpain 1; also recorded: nearly completely inhibited calpain-induced proteolysis”.

These data come from paper PMC12250347, “Calcium-dependent pathway as a primary cause of hypoxic RGC damage in monkey retinal explants” (PLOS One, 2025).
